# Test results reported in patent publication EP3260120B1, “PHARMACOLOGICAL ADJUVANTS FOR THERMAL ABLATION OF CANCER” (Blasi, Paolo, priority 2016, dated 2017).
# Test system: human colon adenocarcinoma HT-29 cell line
# Test: thermosensitizing or killing effect on HT-29 cells (cell count, ethidium bromide / fluorescein diacetate viability)
# Assay type: cell-based
# Details: for Viability (%) / Total cells (x10^6) / Living cells (x10^6): mean ± S.D.; for Living cells (x10^6): viability % applied to total cells
# Protocol: The thermosensitizing or killing effect of omeprazole in acidic solution and that of liposome formulations was tested on human colon adenocarcinoma HT-29 cell line (Istituto Zooprofilattico Ubertini, Brescia, Italy). The cells were incubated under standard conditions: 5% CO2, 37°C, in McCOY'S 5A medium (Sigma-Aldrich, Milan, Italy) at pH 7.4 with sodium bicarbonate, antibiotics and antifungals (penicillin 100 U/mL, streptomycin 100 U/mL, amphotericin B 0.25 µg/mL) and 10% foetal bovine serum. A trypsin solution with EDTA was employed to detach the cells from the culture plates. The experimental protocol is reported in the following scheme: [formula] In detail: • 1)-HT-29 cells were seeded in 6-well culture plates (Falcon) with a 10 cm^2 area at a 250,000 cell/well concentration and 5 mL medium as indicated above. • 2)-After 72 h plating, the culture medium, with initial buffered pH=7.4, was replaced with unbuffered medium (without sodium bicarbonate), and 12 wells were maintained at 37°C, while 12 wells were destined for thermal treatment. In each group, three wells were treated with omeprazole in acidic solution, three with LUVs with acidic core and three with LUVs loaded with omeprazole in acidic solution, according to the concentrations reported in the previous scheme. […] At the end of the thermal treatment the cells were brought back into the incubator at 37°C. • 4)-After 24 h, the following parameters were evaluated for all the wells: Total number of cells (living and dead). After detachment of the cell monolayer with trypsin and EDTA, the total number of cells (living + dead) in each well was determined using a Countess cell counting machine (Invitrogen, Milan, Italy). Cell viability (%). Cell viability was evaluated by incubation of a detached cell suspension with ethidium bromide and fluorescein diacetate (Sigma-Aldrich, Milan, Italy). The cells were analysed with a fluorescent optical microscope (Olympus BX-41, Tokyo, Japan) using the filter for fluorescein. The images were recorded with an F-view digital camera (Olympus) and processed with F-view software (Olympus). With this method, the living cells are stained green and the dead cells red, as fluorescein diacetate is internalized by living cells and hydrolysed by cytoplasm esterases into the corresponding fluorochrome, fluorescein, which emits an intense green fluorescence, whereas ethidium bromide only penetrates cells with altered membranes, binding to nucleic acids and producing a red fluorescence. The living and dead cells were counted by a semi-manual method. A minimum of three images per well were acquired in distinct areas, representative of the corresponding cell suspension. For the group maintained at 37°C, an average of 2,500 cells was counted for each treatment type (constituted by three wells representing the single treatment performed in triplicate). Since the number of cells decreases noticeably for the wells treated at 45°C for 2 h, the number of recorded images was increased (from 9 to 16), and 2,700 to 3,500 cells were counted for each treatment type (constituted by three wells representing the single treatment performed in triplicate). Living cell (green) and dead cell (red) counts were acquired by marking each cell and recording the resulting cell number with Image J software. The percentage viability of the cells counted for each sample was calculated as follows: Viability(%) = (No. of living cells)/(No. of living cells + No. of dead cells)⋅100 [formula] Total number of living cells. The endpoint of the study was the total number of tumour cells surviving the different treatments. This value was calculated for each well by applying the viability percentage obtained by semi-manual counting to the total number of cells measured by the cell-counting machine. Statistical analysis. The data were subjected to statistical analysis with the paired Student's t-test and one-way ANOVA (SigmaPlot 12.0, Systat Software Inc.) with a 95% significance level. […]
# [1] = 37°C, 48 h incubation with treatment
# [2] = 45°C for 2h after 24 h pre-incubation, evaluated 24 h after thermal treatment
smiles,measurement,setting,value
"COc1ccc2[nH]c([S+]([O-])Cc3ncc(C)c(OC)c3C)nc2c1 (centres unmarked) [B, omeprazole]",Viability (%),[1],83.3 ± 2.4%
same,decrease in number of surviving tumour cells versus untreated control,"37°C, 48 h of incubation",25%
same,Total cells (x10^6),"37°C, living and dead cells per well, 48 h incubation with treatment",1.83 ± 0.25 x10^6
same,Living cells (x10^6),[1],1.53 ± 0.22 x10^6
same,reduction in number of living cells compared to heating only,"45°C for 2 h, 24 h after heat shock",41%
same,Total cells (x10^6),[2],0.66 ± 0.27 x10^6
same,Viability (%),[2],61.5 ± 4.4%
same,Living cells (x10^6),[2],0.40 ± 0.10 x10^6
